≈ marks a conversion by molar mass, not a printed value. Like-named read-outs stand apart in the source and are kept apart here.
How the values were obtained:
COLO 205 = experiment: in vitro cytotoxicity by the MTT assay, COLO 205; type: cell-based, human
Experimental: (§1) Compounds 1-9 were evaluated for in vitro cytotoxicity by the MTT assay, against four types of human tumor cell lines, including COLO 205, HA22T, SKBR3, and MOLT-4.
(§2) COLO 205 was grown as a monolayer in RPMI 1640 (Gibco) with 10% fetal serum (FBS, Hyclon). HA22T/VGH was grown as a monolayer in DMEM/F12 medium (Gibco) supplemented with 10% FBS and […] nonessential amino acid (Gibco, BRL). SKBr3 was grown as a monolayer in DMEM/F12 medium (Gibco) with 10% FCS and 1% penicillin/streptomycin (Gibco, BRL). MOLT-4 was grown as a suspension cell line in RPMI 1640 supplemented with 10% FCS and 1% penicillin/streptomycin (Gibco, BRL). Exponentially growing cell cultures were maintained in a humidified incubator (NAPCO, Model 5410) with an atmosphere of 5% CO2 -95% air at 37° C.
(§3) In principle, the assay is dependent on the cellular reduction of MTT (Sigma Chemical Co.) by the mitochondrial dehydrogenase of viable cells to a dark blue formazan product. The viable cell number is directly proportional to the production of formazan, which can be measured spectrophotometrically following solubilization.
(§4) Single cell suspensions were obtained by mechanical disaggregation of the floating cell line (MOLT-4) and by trypsinization of the monolayer cultures (COLO 205, HA22T/VGH, SKBr3) and counted by trypan blue exclusion. The cell suspensions (180 μl) were added into 96-well microtiter plates (Nunc 67008) using a multichannel pipette, and the incubation was allowed for 24 h.
(§5) Each test compound was dissolved in a 10% DMSO (Sigma, D-8779) and 90% DPBS solution. 20 μl of this solution was dispensed to each microtiter plate well, and diluted to give final concentrations ranging from 100 μg/ml to 0.01 μg/ml by 10-fold dilutions. The cells were then incubated in the presence of the drug (the test compound) for a further 72 h. At the end of this time, 20 μl of a MTT solution (5 mg/ml) was added to each well and the incubation was allowed a further 4 h. After this time, the culture plates containing suspension lines or any detached cells were centrifuged at a low speed of 1000 rpm for 5 min. 170 μl of the culture medium supernatant was removed from each well and replaced by 200 μl of DMSO. After the solubilization of formazans, the optical density was then read by an automated spectrophotometric plate reader (ELISA, Molecular Device Emax) at a wavelength of 545-690 nm. Readings were transferred to a microcomputer and final reports were generated using especially developed software.

HA22T = experiment: in vitro cytotoxicity by the MTT assay, HA22T; type: cell-based, human; details: 72 h
Experimental: as §1, §2, §3, §4, §5

SKBR3 = experiment: in vitro cytotoxicity by the MTT assay, SKBR3; type: cell-based, human
Experimental: as §1, §2, §3, §4, §5

MOLT-4 = experiment: in vitro cytotoxicity by the MTT assay, MOLT-4; type: cell-based, human
Experimental: as §1, §2, §3, §4, §5

leukemia cells = details: versus other solid tumor cells; cited from earlier work
[1] = Homo sapiens, COLO 205, MTT, 72 h, read-out: IC50
[2] = Homo sapiens, MTT, read-out: IC50
[3] = Homo sapiens, SK-BR-3, SKBR3, MTT, 72 h, read-out: IC50
[4] = Homo sapiens, MOLT-4, MTT, 72 h, read-out: IC50

Compound	IC50 (COLO 205; [1])	IC50 (HA22T; [2])	IC50 (SKBR3; [3])	IC50 (MOLT-4; [4])	IC50 (COLO 205; COLO 205, MTT, 72 h)	IC50 (HA22T; MTT)	IC50 (SKBR3; SKBR3, MTT, 72 h)	IC50 (MOLT-4; MOLT-4, MTT, 72 h)	other results
C=C1C(=O)OCC1C(c1cc(OC)c(OC)c(OC)c1Br)c1cc(OC)c(OC)c(OC)c1Br (stereo not drawn) [Compound 6, 2-Methylene-3-[bis(2-bromo-3,4,5-trimethoxy)phenyl]methyl γ-butyrolactone]	6.7 µg/mL (≈ 11.1 µM)	5.9 µg/mL (≈ 9.8 µM)	3.7 µg/mL (≈ 6.14 µM)	4.3 µg/mL (≈ 7.14 µM)					
COc1cc(C(c2cc(OC)c(OC)c(OC)c2Br)[C@H]2COC(=O)[C@@H]2CBr)c(Br)c(OC)c1OC (relative stereo) [Compound 2, 2-Bromomethyl-3-[bis(2-bromo-3,4,5-trimethoxy)phenyl]-methyl γ-butyrolactone]	5 µg/mL (≈ 7.32 µM)	6.6 µg/mL (≈ 9.66 µM)	3.7 µg/mL (≈ 5.42 µM)	3.1 µg/mL (≈ 4.54 µM)					
COc1cc(C(c2cc(OC)c(OC)c(OC)c2Br)[C@@H]2COC(=O)[C@@H]2CBr)c(Br)c(OC)c1OC (relative stereo) [Compound 4, 2-Bromomethyl-3-[bis(2-bromo-3,4,5-trimethoxy)phenyl]-methyl γ-butyrolactone]	4.2 µg/mL (≈ 6.15 µM)	6.4 µg/mL (≈ 9.37 µM)	4.9 µg/mL (≈ 7.17 µM)	4.9 µg/mL (≈ 7.17 µM)					
C=C1C(=O)OCC1C(c1cc(OC)c(OC)c(OC)c1)c1cc(OC)c(OC)c(OC)c1 (stereo not drawn) [Compound 1, 2-Methylene-3-[bis(3,4,5-trimethoxy)phenyl]methyl γ-butyrolactone]	2.3 µg/mL (≈ 5.17 µM)	7.1 µg/mL (≈ 16 µM)	4 µg/mL (≈ 9 µM)	2.8 µg/mL (≈ 6.3 µM)					
C=C1C(=O)OCC1C(c1ccc2c(c1)OCO2)c1cc(OC)c(OC)c(OC)c1 (stereo not drawn) [Compound 3, 2-Methylene-3-[1-(3,4-methylenedioxy)phenyl-1'-(3,4,5-trimethoxy)phenyl]methyl γ-butyrolactone]	5.8 µg/mL (≈ 14.6 µM)	6.4 µg/mL (≈ 16.1 µM)	4.6 µg/mL (≈ 11.5 µM)	4.3 µg/mL (≈ 10.8 µM)					
2-Methylene-3-[1-(2(or 6)-bromo-3,4-methylenedioxy)-phenyl-1'-(2-bromo-3,4,5-trimethoxy)phenyl]methyl γ-butyrolactone [Compound 5]					6.8 µg/mL	5.9 µg/mL	5.3 µg/mL	3.9 µg/mL	
COc1cc(C(c2cc(OC)c3c(c2Br)OCO3)C2COC(=O)C2CBr)c(Br)c(OC)c1OC (stereo not drawn) [Compound 8, 2-Bromomethyl-3-[1-(2(or 6)-bromo-3,4-methylenedioxy-5-methoxy)phenyl-1'-(2-bromo-3,4,5-trimethoxy)phenyl]methyl γ-butyrolactone]					6.1 µg/mL (≈ 9.14 µM)	5.8 µg/mL (≈ 8.69 µM)	4.3 µg/mL (≈ 6.45 µM)	1.5 µg/mL (≈ 2.25 µM)	
COc1cccc2c1C(=O)c1c(O)c3c(c(O)c1C2=O)C[C@@](O)(C(=O)CO)C[C@@H]3O[C@H]1C[C@H](N)[C@H](O)[C@H](C)O1 [DOXORUBICIN, reference compound]									IC50 (COLO 205; Homo sapiens, COLO 205, 72 h): 0.2 µg/mL (≈ 0.368 µM); IC50 (HA22T; Homo sapiens): 0.2 µg/mL (≈ 0.368 µM); IC50 (SKBR3; Homo sapiens, SK-BR-3, 72 h): 0.1 µg/mL (≈ 0.184 µM); IC50 (MOLT-4; Homo sapiens, MOLT-4, 72 h): 0.01 µg/mL (≈ 0.0184 µM); hypersensitivity to MOLT-4 leukemia cell line (MOLT-4; as compared to other solid tumor cells): hypersensitivity towards leukemia cells as compared to other solid tumor cells; hypersensitivity towards leukemia cells (leukemia cells): hypersensitivity towards leukemia cells versus other solid tumor cells
C=C1C(=O)OCC1C(c1cc(OC)c(OC)c(OC)c1)c1cc(OC)c2c(c1)OCO2 (stereo not drawn) [Compound 7, 2-Methylene-3-[1-(3,4-methylenedioxy-5-methoxy)phenyl-1'-(3,4,5-trimethoxy)phenyl]methyl γ-butyrolactone]	4.4 µg/mL (≈ 10.3 µM)	7.1 µg/mL (≈ 16.6 µM)	4.6 µg/mL (≈ 10.7 µM)	3 µg/mL (≈ 7 µM)					
2-Bromomethyl-3-[1-(2(or 6)-bromo-3,4-methylenedioxy)-phenyl-1'-(2-bromo-3,4,5-trimethoxy)phenyl]methyl γ-butyrolactone [Compound 9]					5.6 µg/mL	5.7 µg/mL	4.5 µg/mL	5.8 µg/mL	

— US5981577A, “α-methylene peperomins and halogenated derivatives thereof” (Development Center for Biotechnology, priority 1998, dated 1999)
